From article PMC7321382, “Synthesis and Antibacterial Analysis of Analogues of the Marine Alkaloid Pseudoceratidine” (Molecules, 2020)
Values after ≈ are worked out from the molar mass of the structure shown.

Experiments:
S. aureus 16207 = assay: Antibacterial MIC, broth microdilution, S. aureus; assay type: cell-based, Staphylococcus aureus; settings: Gram-positive, 24 h incubation, highest concentration tested 32 µM; for MIC: Staphylococcus aureus, 16207
Method: (§1) The MIC was determined using the broth microdilution method. Mueller Hinton (MH) broth base was prepared in milli-Q water, then autoclaved at 120 °C for 1 h before allowing it to cool to room temperature. A single colony of each bacterial strain (E. coli DH5α and S. aureus 16207) was inoculated in MHB and incubated at 37 °C overnight. Overnight cultures were adjusted to 10^6 CFU/mL in MHB according to the McFarland Standard,100 μL of which was further diluted to a total of 10 mL in the media. The stock solutions of the compounds were prepared at 12.8 mM in purified DMSO. The stock solutions were further diluted in milli-Q water to 64 μM in 0.5% DMSO for testing against S. aureus, and 256 μM in 2% DMSO for testing against E. coli. Compounds that were not soluble in these solvent mixtures were further diluted in half to get clear solutions for the bioassay. DMSO is known to have weak antibacterial activity. To exclude the antibacterial effect of DMSO from the results, a solution of 2% DMSO in milli-Q water was used as an additional control in the experiments. The compounds and three controls (the natural product pseudoceratidine 1 for both strains, streptomycin for S. aureus, and polymyxin B for E. coli) then underwent a dilution series. The assay was performed by adding 50 μL of each compound solution at the different concentrations and 50 μL of the diluted bacterial culture to the different wells of a 96-well microtiter plate. The experiments were performed at least thrice and in triplicates. MIC after 24 h of incubation was determined by both visual inspection and absorbance at 600 nm using an EnSpire Multimode plate reader.

[1] = system: HEK293 human embryonic kidney cells; assay: Cytotoxicity, sulforhodamine B cell proliferation assay; assay type: cell-based; settings: for relative growth of HEK293 cells (% of untreated control) at 16 µM: Homo sapiens, 72 h, 16 µM compound, 3 days, relative to control with no treatment, mean ± SD of triplicates; for cytotoxic activity (in words): HEK293, at concentrations 2–4 times the MIC (16 µM)
Method: As described previously, cell proliferation was measured by sulforhodamine B colorimetric assay in which 2000 HEK293 human embryonic kidney cells were seeded in 96-well plates in the presence of varying concentrations of drugs. The sulforhodamine B colorimetric assay, which is based on the measurement of cellular protein content, was used to measure cell density. After drug treatment for 3 days, cells were fixed with 10% (w/v) trichloroacetic acid and stained with 0.057% (w/v) sulforhodamine B for 30 min, and the excess dye was removed by washing repeatedly with 1% (v/v) acetic acid. The protein-bound dye was dissolved in Tris base solution (10 mM) for optical density determination at 510 nm using a microplate reader. All experiments were done in triplicate, and were repeated at least twice. The optimal cell densities were previously determined to select initial cell densities that ensured that the cells were in the logarithmic phase for the experiments.

E. coli DH5α = assay: Antibacterial MIC, broth microdilution, E. coli; assay type: cell-based, Escherichia coli; settings: for MIC: Escherichia coli, Gram-negative, 24 h incubation, highest concentration tested 128 µM, † lower starting concentration due to insolubility
Method: as §1

HepG2 liver cell line = system: HepG2 liver cell line; design: method as in PMID 29297684; settings: compared with HEK293 result; cited from earlier work
Pseudomonas aeruginosa = system: Pseudomonas aeruginosa; design: method as in doi:10.1016/S0960-894X(96)00622-1, doi:10.1016/S0040-4020(98)00340-8, doi:10.1016/0040-4039(96)01310-X; settings: Gram-negative; cited from earlier work
Candida albicans = system: Candida albicans; design: method as in doi:10.1016/S0960-894X(96)00622-1, doi:10.1016/S0040-4020(98)00340-8, doi:10.1016/0040-4039(96)01310-X; settings: anti-fungal; cited from earlier work
Listeria monocytogenes = system: Listeria monocytogenes; design: method as in doi:10.1016/S0960-894X(96)00622-1, doi:10.1016/S0040-4020(98)00340-8, doi:10.1016/0040-4039(96)01310-X; settings: Gram-positive; cited from earlier work
Escherichia coli = system: Escherichia coli; design: method as in doi:10.1016/S0960-894X(96)00622-1, doi:10.1016/S0040-4020(98)00340-8, doi:10.1016/0040-4039(96)01310-X; settings: Gram-negative; cited from earlier work
Staphylococcus aureus = system: Staphylococcus aureus; design: method as in doi:10.1016/S0960-894X(96)00622-1, doi:10.1016/S0040-4020(98)00340-8, doi:10.1016/0040-4039(96)01310-X; settings: Gram-positive; cited from earlier work
Plasmodium falciparum = system: Plasmodium falciparum; design: method as in PMID 29297684; settings: anti-malarial; cited from earlier work
Balanus amphitrite = system: Balanus amphitrite; design: method as in doi:10.1016/0040-4039(96)00025-1; settings: marine larval organism Balanus amphitrite; cited from earlier work

Row | SMILES | MIC S. Aureus (S. aureus 16207) [µM] | MIC (S. aureus 16207) [µM] | relative growth of HEK293 cells (% of untreated control) at 16 µM [1] [%] | MIC (E. coli DH5α) [µM] | cytotoxicity versus HepG2 (in words) (HepG2 liver cell line) | cytotoxic activity (in words) [1] | melting point [°C] | activity against Gram-negative bacteria compared with 1 (in words) (E. coli DH5α) | MIC Pseudomonas aeruginosa (Pseudomonas aeruginosa) [µg/mL] | MIC Candida albicans (Candida albicans) [µg/mL] | MIC Listeria monocytogenes (Listeria monocytogenes) [µg/mL] | MIC Escherichia coli (Escherichia coli) [µg/mL] | MIC Staphylococcus aureus (Staphylococcus aureus) [µg/mL] | EC50 (Plasmodium falciparum) [nM] | EC50 antifouling (Balanus amphitrite) [µg/mL]
1 | O=C(NCCCNCCCNCCCNC(=O)c1cc(Br)c(Br)[nH]1)c1cc(Br)c(Br)[nH]1 [Compound 18e] | 2 to 4 | 2 to 4 (≈ 1.38 to 2.76 µg/mL) | 2.1 ± 1.5 | 32 to 64 (≈ 22.1 to 44.2 µg/mL) | – | – | – | – | – | – | – | – | – | – | –
2 | O=C(NCCCCCCNCCCCCCNC(=O)c1cc(Br)c(Br)[nH]1)c1cc(Br)c(Br)[nH]1 [Compound 15e] | 4 to 8 | 4 to 8 (≈ 2.87 to 5.74 µg/mL) | 1.3 ± 0.8 | 16 to 32 (≈ 11.5 to 22.9 µg/mL) | – | – | – | – | – | – | – | – | – | – | –
3 | O=C(NCCCNCCCCNCCCNC(=O)c1cc(Br)c(Br)[nH]1)c1cc(Br)c(Br)[nH]1 [Compound 19e] | 2 to 4 | 2 to 4 (≈ 1.41 to 2.82 µg/mL) | 94.5 ± 5.9 | 32 to 64 (≈ 22.5 to 45.1 µg/mL) | far less toxic | almost no cytotoxic activity | – | – | – | – | – | – | – | – | –
4 | O=C(NCCCNCCCNC(=O)c1cc(Br)c(Br)[nH]1)c1cc(Br)c(Br)[nH]1 [Compound 14e] | 8 to 16 | 8 to 16 (≈ 5.06 to 10.1 µg/mL) | 1.1 ± 0.9 | 32 to 64 (≈ 20.3 to 40.5 µg/mL) | – | – | 135 to 137 | – | – | – | – | – | – | – | –
5 | O=C(NCCCNCCCCNCCCNC(=O)c1cc(Cl)c(Cl)[nH]1)c1cc(Cl)c(Cl)[nH]1 [Compound 19c] | 4 to 8 | 4 to 8 (≈ 2.11 to 4.21 µg/mL) | 1.6 ± 2 | 128 to 256 (≈ 67.4 to 135 µg/mL) | – | – | 110 to 112 | – | – | – | – | – | – | – | –
6 | O=C(NCCCNCCNC(=O)c1cc(Cl)c(Cl)[nH]1)c1cc(Cl)c(Cl)[nH]1 [Compound 16c] | 16 to 32 | 16 to 32 (≈ 7.06 to 14.1 µg/mL) | 2.5 ± 1.8 | 32 to 64 (≈ 14.1 to 28.2 µg/mL) | – | – | 133 to 135 | equivalents activity to 1 | – | – | – | – | – | – | –
7 | O=C(NCCCCCCNCCCCCCNC(=O)c1cc(Cl)c(Cl)[nH]1)c1cc(Cl)c(Cl)[nH]1 [Compound 15c] | 4 to 8 | 4 to 8 (≈ 2.16 to 4.31 µg/mL) | 1.8 ± 2 | 32 to 64 (≈ 17.3 to 34.5 µg/mL) | – | – | 189 to 190 | – | – | – | – | – | – | – | –
8 | O=C(NCCCNCCCNC(=O)c1cc(Cl)c(Cl)[nH]1)c1cc(Cl)c(Cl)[nH]1 [Compound 14c] | 8 to 16 | 8 to 16 (≈ 3.64 to 7.28 µg/mL) | 0.5 ± 0.3 | 64 to 128 (≈ 29.1 to 58.3 µg/mL) | – | – | 189 to 190 | – | – | – | – | – | – | – | –
9 | O=C(NCCCNCCCNCCCNC(=O)c1cc(Cl)c(Cl)[nH]1)c1cc(Cl)c(Cl)[nH]1 [Compound 18c] | 4 to 8 | 4 to 8 (≈ 2.05 to 4.1 µg/mL) | 98 ± 4.5 | 32 to 64 (≈ 16.4 to 32.8 µg/mL) | – | almost no cytotoxic activity | 109 to 111 | – | – | – | – | – | – | – | –
10 | O=C(NCCCNCCNC(=O)c1cc(Br)c(Br)[nH]1)c1cc(Br)c(Br)[nH]1 [Compound 16e] | 8 to 16 | 8 to 16 (≈ 4.95 to 9.9 µg/mL) | 2.6 ± 2 | 64 to 128 (≈ 39.6 to 79.2 µg/mL) | – | – | 206 to 208 | – | – | – | – | – | – | – | –
11 | O=C(NCCCCNCCCNC(=O)c1cc(Br)c(Br)[nH]1)c1cc(Br)c(Br)[nH]1 [Pseudoceratine 1, pseudoceratidine] | 8 to 16 | 8 to 16 (≈ 5.18 to 10.4 µg/mL) | 0.7 ± 0.8 | 32 to 64 (≈ 20.7 to 41.4 µg/mL) | – | – | – | – | 128 (≈ 198 µM) | 32 (≈ 49.5 µM) | 5 (≈ 7.73 µM) | 32 (≈ 49.5 µM) | 4 (≈ 6.18 µM) | 1000 | 8 (≈ 12.4 µM)
12 | CN(C)CCCNC(=O)c1cc(I)c[nH]1 [Compound 27f] | – | > 32 | – | > 128 | – | – | 169 to 171 | – | – | – | – | – | – | – | –
